Values of other authors, collected in patent US6376550B1, “Pharmaceutical compositions containing tramadol for migraine” (ASTA Medica AG, priority 1999, dated 2002).

Details: in vivo

Compound: COc1cccc(C2(O)CCCCC2CN(C)C)c1 (stereo not shown) [tramadol, 2-[(dimethylamino)methyl]-1-(3-methoxyphenyl)cyclohexanol]
- terminal elimination half life: 5 to 6 h
